Laboratory results from patent publication US10869874B2, “Methods and compositions for topical delivery of prostaglandins to subcutaneous fat” (Topokine Therapeutics, Inc., priority 2013, dated 2020).

What was measured:
abdominal fat = test: randomized placebo-controlled trial for reduction of abdominal fat; assay type: in vivo, human; settings: compared to vehicle alone
Source text: The following experiment describes a randomized, placebo-controlled, double-blind trial in human subjects to test whether the safety and efficacy of a PFPRA pharmaceutical composition for reduction of abdominal fat. The composition can be, for example, as described in Example 1, wherein the PFPRA is latanoprost. Alternatively, the PFPRA can be tafluprost. Other alternatives within the scope of the invention can also be used. Eligible subjects (for example, n=60) with excess anterior abdominal fat are entered into a randomized double-blind study. […] Subjects are instructed to apply, once a day, a metered dose, for example, of 2 ml over a 200 cm^2 application area on the anterior abdomen. The application area is standardized, for example, by use of a template that is centered on the umbilicus. Serial clinical assessments, subjective patient assessments, photographs, and magnetic resonance imaging (MRI) scans are performed prior to the first dose and then, for example, at 6 and 12 weeks. Treatment continues, for example, for a total of 12 weeks.

[1] = skin permeation ex vivo, Franz-type diffusion cell; assay type: in vitro ADME, human; settings: free acid recovered in dermis and receptor fluid
Experimental: Skin permeation studies were conducted with various formulations of latanoprost, ex vivo, on fresh human skin. Fresh human skin was obtained from live donors undergoing abdominoplasty and mounted on a standard (Franz-type) diffusion cell apparatus. All test articles contained 0.8% (weight/weight) of latanoprost. Each test article (8 mg) was uniformly applied to a skin surface of 0.8 cm^2. All formulations were tested on skin from at least two different donors. Treated skin was left open to the atmosphere to simulate clinical conditions. Receptor fluid flowed continuously over 24 hours and was collected in fractions. The amount of active drug metabolite (latanoprost free acid) in these fractions was determined by Liquid Chromatography/Tandem Mass Spectrometry. The following amounts of drug were recovered from receptor fluid over 24 hours:
Skin permeation studies were conducted with various formulations of latanoprost 0.5%, ex vivo, on fresh human skin, as described in the foregoing example. All formulations comprised ethanol (70%) and oleic acid (1.5%, 3% or 4.5%) with the remainder essentially as propylene glycol (28.5%, 27% or 25.5%, respectively). All studies were run in duplicate.

Compound | satisfaction with cosmetic appearance (abdominal fat) | conversion of prodrug in skin samples [1]
CC(C)OC(=O)CCC/C=C\C[C@@H]1[C@@H](CC[C@@H](O)CCc2ccccc2)[C@H](O)C[C@@H]1O [latanoprost] | more satisfied with their cosmetic appearance | converted (hydrolyzed) to the active metabolite, latanoprost free acid
CC(C)OC(=O)CCC/C=C\C[C@@H]1[C@@H](/C=C/C(F)(F)COc2ccccc2)[C@H](O)C[C@@H]1O [tafluprost] | more satisfied with their cosmetic appearance | 
